Earlier results, collected in US8409637B2, “Compositions and methods for treating and preventing migrainous headaches and associated symptoms” (Puramed Bioscience Inc., priority 2007, dated 2013).

Tests used:
COX-2 = target: T1, COX-2 (Homo sapiens, UniProt P35354)
T1 sequence (P35354 18-604): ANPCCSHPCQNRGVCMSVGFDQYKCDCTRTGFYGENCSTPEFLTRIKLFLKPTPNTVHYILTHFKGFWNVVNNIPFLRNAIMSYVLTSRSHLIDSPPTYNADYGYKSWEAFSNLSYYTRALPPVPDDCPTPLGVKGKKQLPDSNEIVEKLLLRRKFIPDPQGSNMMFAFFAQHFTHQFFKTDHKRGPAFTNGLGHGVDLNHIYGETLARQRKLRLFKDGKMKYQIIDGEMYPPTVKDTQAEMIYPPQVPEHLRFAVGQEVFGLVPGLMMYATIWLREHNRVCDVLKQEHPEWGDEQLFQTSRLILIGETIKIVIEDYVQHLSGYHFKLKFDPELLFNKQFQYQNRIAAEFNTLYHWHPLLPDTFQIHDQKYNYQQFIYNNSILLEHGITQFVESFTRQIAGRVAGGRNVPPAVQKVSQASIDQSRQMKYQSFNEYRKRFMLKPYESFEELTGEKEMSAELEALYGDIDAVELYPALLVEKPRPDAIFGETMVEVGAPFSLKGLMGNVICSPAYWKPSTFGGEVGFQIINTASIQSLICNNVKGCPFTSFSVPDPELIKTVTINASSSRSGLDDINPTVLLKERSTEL

## C/C=C(/C=O)[C@@H](CC=O)CC(=O)OCCc1ccc(O)cc1 [oleocanthal]
COX-1
  Inhibition of COX-1 enzyme activity: inhibits
COX-2
  Inhibition of COX-2 enzyme activity: inhibits
